Here are results for 15 compounds from US10450288B2, “Hydroxy formamide derivatives and their use” (GLAXOSMITHKLINE INTELLECTUAL PROPERTY (NO.2) LIMITED, priority 2014, dated 2019).

The test system of experiment [1] is human cardiac fibroblasts. The experiment in a line: Cell-based inhibition assay of generation of procollagen I C-terminal propeptide (PICP), PICP ELISA. Conditions: Cardiac fibroblast; human cardiac fibroblasts, crowding media, 24 to 48 hr, PICP ELISA of media; read-out: pIC50, PICP cellular inhibition assay (converted). An outline of the steps: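 Cardiac fibroblasts (passage ≤6) treated 24–48 h at 37 °C with compounds in ficoll crowding medium containing 100 μM ascorbic acid, DMSO <0.3%. PICP secreted into the medium was quantified by ELISA, normalised to untreated controls and fitted to log(inhibitor)–response to give pIC50.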

Experiment [2] has as its system human cardiac fibroblasts. The experiment in a line: Cell-based inhibition assay of mature collagen deposition (immunostaining). The settings on record: Cardiac fibroblast; human cardiac fibroblasts, crowding media, 24 to 48 hr, collagen I immunostaining normalized to nuclei; read-out: pIC50, mature collagen cellular inhibition assay (converted). On the procedure:
Cell-Based Inhibition Assay of Generation of Procollagen I C-Terminal Propeptide (PICP) and Mature Collagen:
An adaptation of the collagen deposition assay described by Chen, C. Z. C., et al., British Journal of Pharmacology, 2009, 158, 1196-1209 was used to examine effect of compounds on procollagen I processing and collagen deposition. In the adapted assay, human cardiac fibroblasts were utilized. Processing of procollagen I was determined by a PICP ELISA assay and deposition of mature collagen was determined by immunostaining.
Human cardiac fibroblasts were cultured and maintained until passage 6 in FGM-3 media (Lonza, #CC-3132) in a 37° C. humidified incubator with 5% CO2. They were then seeded in 96-well black wall, clear bottom plates at 10,000 to 15,000 cells per well in eagle's minimum essential media (EMEM, ATCC #30-2003) containing 10% fetal bovine serum (FBS, Life Technologies #10082147), 1% Glutamax (Life Technologies #35050061) and 1% Penicillin and Streptomycin (Life Technologies #15070063). These cultures were placed in 37° C. incubator. The next day, media were removed by aspiration and cells were rinsed with phosphate buffered saline. Crowding media (also called ficoll media) was prepared by adding 112.5 mg/ml of ficoll70 and 75 mg/ml ficoll400 (GE healthcare #17-0310-10 and 17-0300-10, respectively), 100 μM ascorbic acid, 1% Glutamax and 1% Penicillin and Streptomycin to EMEM media. Test compounds (dissolved in DMSO) were diluted into crowding media and then added to the cells. Final concentration of DMSO in crowding media was less than 0.3%. Cells were treated for 24 to 48 hr in a 37° C. incubator. At the end of the treatment period, cell media were collected. The level of PICP in the media were determined by a PICP ELISA assay (Quidel #8003) following the manufacturer's protocol. Potencies of test compounds were calculated by fitting PICP levels, relative to untreated controls, to log (inhibitor) vs. response equation using Graphpad Prism software 5.0 and expressed as pIC50.
For some compounds, deposition of mature collagen was measured by immunostaining in addition to PICP levels. At the end of the treatment period, cells on culture plate were fixed with 100% methanol (prechilled to −20° C.) for 10 min. Then the cells were immunostained with mouse anti-mature collagen I antibody (1:500 dilution, Sigma#C2456), anti-mouse secondary antibody Alexa647 (1:500 dilution, Invitrogen#A21236) and Hoechst (for nuclei, 2 μg/ml, Invitrogen#H3596). Fluorescent image acquisition was done using the Operetta High Content Imaging system (Perkin Elmer). For each image field, the intensity of mature collagen staining was normalized with the number of nuclei. Normalized collagen levels were used to calculate the potency of test compounds with Graphpad Prism software, as described above.

For `CCCCC[C@@H](C(=O)NCNC(=O)c1ccc(-c2cc(OCC)c(F)c(C(=O)O)c2)o1)[C@@H](CC)N(O)C=O` [Example 111, 3-ethoxy-2-fluoro-5-(5-((((R)-2-((R)-1-(N-hydroxy-formamido)propyl)heptanamido)methyl)carbamoyl)furan-2-yl)benzoic acid], the IC50 in experiment [1] is under 3980 nM; in experiment [2], under 1000 nM.

As to `CCCCC[C@@H](C(=O)NCNC(=O)c1ccc(-c2cc(OCC(=O)O)cc(C(=O)O)c2O)o1)[C@@H](CC)N(O)C=O` [Example 121, 5-(carboxymethoxy)-2-hydroxy-3-(5-((((R)-2-((R)-1-(N-hydroxyformamido)propyl)heptanamido)methyl)carbamoyl)furan-2-yl)benzoic acid], the IC50 was under 3980 nM in experiment [1] and under 1000 nM in experiment [2].

Regarding `CCCCC[C@@H](C(=O)NCNC(=O)c1ccc(-c2cc(OCC)cc(C(=O)O)c2O)o1)[C@@H](CC)N(O)C=O` [Example 81, 5-ethoxy-2-hydroxy-3-(5-((((R)-2-((R)-1-(N-hydroxy-formamido)propyl)heptanamido)methyl)carbamoyl)furan-2-yl)benzoic acid], the IC50 in experiment [1] is under 3980 nM; in experiment [2], under 1000 nM.

For the compound `CCOc1cc(-c2ccc(C(=O)NCNC(=O)[C@H](CCc3ccccc3)[C@@H](CC)N(O)C=O)o2)ccc1C(=O)N[C@@H](CC(=O)O)C(=O)O` [Example 127, (S)-2-(2-ethoxy-4-(5-((((2R,3R)-3-(N-hydroxyformamido)-2-phenethylpentanamido)methyl)carbamoyl)furan-2-yl)benzamido) succinic acid], the IC50 in experiment [1] was under 3980 nM; in experiment [2] it was under 1000 nM.

For the compound `CCCCC[C@@H](C(=O)NCNC(=O)c1ccc(-c2ccc(P(=O)(O)O)c(OCC)c2)o1)[C@@H](CC)N(O)C=O` [Example 98, (2-ethoxy-4-(5-((((R)-2-((R)-1-(N-hydroxyformamido)propyl)heptanamido)methyl)carbamoyl)furan-2-yl)phenyl)phosphonic acid], the IC50 in experiment [1] was under 3980 nM; in experiment [2] it was under 1000 nM.

Regarding `CCCCC[C@@H](C(=O)NCNC(=O)c1ccc(-c2cccc(C3(C(=O)O)CC3)c2)o1)[C@@H](CC)N(O)C=O` [Example 80, 1-(3-(5-((((R)-2-((R)-1-(N-hydroxyformamido)propyl)heptanamido)methyl)carbamoyl)furan-2-yl)phenyl) cyclopropanecarboxylic acid], the IC50 in experiment [1] is under 3980 nM; in experiment [2], under 1000 nM.

As to `CCCCC[C@@H](C(=O)NCNC(=O)c1ccc(-c2cc(OCC(=O)O)cc(C(=O)O)c2)o1)[C@@H](CC)N(O)C=O` [Example 113, 3-(carboxymethoxy)-5-(5-((((R)-2-((R)-1-(N-hydroxformamido)propyl)heptanamido)methyl)carbamoyl)furan-2-yl)benzoic acid], the IC50 in experiment [1] is under 3980 nM; in experiment [2], under 1000 nM.

As for `CCCCC[C@@H](C(=O)NCNC(=O)c1ccc(-c2cc(OCC)cc(C(=O)N[C@@H](CCC(=O)O)C(=O)O)c2)o1)[C@@H](CC)N(O)C=O` [Example 93, (S)-2-(3-ethoxy-5-(5-((((R)-2-((R)-1-(N-hydroxy-formamido)propyl)heptanamido)methyl)carbamoyl)furan-2-yl)benzamido) pentanedioic acid], the IC50 in experiment [1] is under 3980 nM; in experiment [2] it was under 1000 nM.

For `CCCCC[C@@H](C(=O)NCNC(=O)c1ccc(-c2ccc(C(=O)N[C@H](CC(=O)O)C(=O)O)c(OCC)c2)o1)[C@@H](CC)N(O)C=O` [Example 132, (R)-2-(2-ethoxy-4-(5-((((R)-2-((R)-1-(N-hydroxyformamido)propyl)heptanamido)methyl)carbamoyl)furan-2-yl)benzamido) succinic acid], the IC50 in experiment [1] was under 3980 nM; in experiment [2], under 1000 nM.

On to `CCOc1cc(-c2ccc(C(=O)NCNC(=O)[C@H](CCc3ccc(F)cc3F)[C@@H](CC)N(O)C=O)o2)ccc1C(=O)N[C@@H](CC(=O)O)C(=O)O` [Example 123, (S)-2-(4-(5-((((2R,3R)-2-(2,4-difluorophenethyl)-3-(N-hydroxyformamido)pentanamido)methyl)carbamoyl)furan-2-yl)-2-ethoxybenzamido) succinic acid], for which the IC50 was under 3980 nM in experiment [1] and under 1000 nM in experiment [2].

As to `CCCCC[C@@H](C(=O)NCNC(=O)c1ccc(-c2ccc(C(=O)NCP(=O)(O)O)c(OCC)c2)o1)[C@@H](CC)N(O)C=O` [Example 139, ((2-ethoxy-4-(5-((((R)-2-((R)-1-(N-hydroxyformamido)propyl)heptanamido)methyl)carbamoyl)furan-2-yl)benzamido)methyl)phosphonic acid], the IC50 in experiment [1] was under 3980 nM; in experiment [2], under 1000 nM.

Turning to `CCCCC[C@@H](C(=O)NCNC(=O)c1ccc(-c2cc(CP(=O)(O)O)cc(OCC)c2)o1)[C@@H](CC)N(O)C=O` [Example 99, (3-ethoxy-5-(5-((((R)-2-((R)-1-(N-hydroxy-formamido)propyl)heptanamido)methyl)carbamoyl)furan-2-yl)benzyl) phosphonic acid], the values for the IC50 in experiment [1] and in experiment [2] were under 3980 nM and under 1000 nM, respectively.

Regarding `CCCCC[C@@H](C(=O)NCNC(=O)c1ccc(-c2cc(OCCC)cc(C(=O)O)c2)o1)[C@@H](CC)N(O)C=O` [Example 82], the IC50 in experiment [1] is under 3980 nM; in experiment [2] it was under 1000 nM.

On to `CCCCC[C@@H](C(=O)NCNC(=O)c1ccc(-c2ccccc2)o1)[C@@H](CC)N(O)C=O` [Example 24, N-(((R)-2-((R)-1-(N-hydroxyformamido)propyl)heptanamido)methyl)-5-phenylfuran-2-carboxamide], for which the IC50 in experiment [1] is under 3980 nM; in experiment [2], under 1000 nM.

Regarding `CCCCC[C@@H](C(=O)NCNC(=O)c1ccc(-c2cc(OCC)cc(P(=O)(O)O)c2)o1)[C@@H](CC)N(O)C=O` [Example 96, (3-ethoxy-5-(5-((((R)-2-((R)-1-(N-hydroxyformamido)propyl)heptanamido)methyl)carbamoyl)furan-2-yl)phenyl)phosphonic acid], the IC50 is under 3980 nM in experiment [1] and under 1000 nM in experiment [2].
